In PubChem BioAssay (NCI):
“And” between values parts separate entries of the source, which are not always exact repeats. Equal values may be shown once.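 Briefly, cells in 96-well plates were exposed to five compound concentrations for 48 h, and endpoints were estimated by linear interpolation. The concentration for 50% growth inhibition is given as GI50. Definition used: TGI = concentration required for complete inhibition of growth.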

How the values were obtained:
Test in all cases: NCI tumour cell line growth inhibition, 48 h
UO-31 renal = test system: UO-31 renal
HOP-92 NSCLC = test system: HOP-92 NSCLC
U251 CNS = test system: U251 CNS
HCT-116 colon = test system: HCT-116 colon
RXF 393 renal = test system: RXF 393 renal
UACC-62 melanoma = test system: UACC-62 melanoma
HOP-62 NSCLC = test system: HOP-62 NSCLC
K-562 leukemia = test system: K-562 leukemia
SF-268 CNS = test system: SF-268 CNS
TK-10 renal = test system: TK-10 renal

Cc1cn(-c2cc(C(=O)Nc3cccc(-n4ccc5c(NC(=O)c6ccccc6)nccc54)c3)cc(C(F)(F)F)c2)cn1
GI50 (UO-31 renal): 1.1 µM | TGI (UO-31 renal): 14.9 µM | GI50 (HOP-92 NSCLC): 0.39 µM | TGI (HOP-92 NSCLC): 6.49 µM | GI50 (U251 CNS): 0.29 µM | TGI (U251 CNS): 1.48 µM | GI50 (HCT-116 colon): 0.291 µM | TGI (HCT-116 colon): 1.35 µM | GI50 (RXF 393 renal): 0.202 µM | TGI (RXF 393 renal): 0.535 µM | GI50 (UACC-62 melanoma): 0.366 µM | TGI (UACC-62 melanoma): 12.7 µM | GI50 (HOP-62 NSCLC): 0.628 µM | TGI (HOP-62 NSCLC): 15.3 µM | GI50 (K-562 leukemia): 0.292 µM | GI50 (SF-268 CNS): 0.514 µM | TGI (SF-268 CNS): 7.89 µM | GI50 (TK-10 renal): 0.855 µM | TGI (TK-10 renal): 5.27 µM

COc1nc2ncc([C@@H](OC(C)=O)[C@@H](COC(C)=O)OC(C)=O)nc2c(=O)[nH]1
TGI (UO-31 renal): > 100 µM | GI50 (HOP-92 NSCLC): > 100 µM and 32.8 µM | TGI (HOP-92 NSCLC): > 100 µM | TGI (U251 CNS): > 100 µM | TGI (HCT-116 colon): > 100 µM | TGI (RXF 393 renal): > 100 µM | TGI (UACC-62 melanoma): > 100 µM | TGI (HOP-62 NSCLC): > 100 µM | TGI (K-562 leukemia): > 100 µM | TGI (SF-268 CNS): > 100 µM | TGI (TK-10 renal): > 100 µM

Clc1ccc(CSCCc2ccncc2)cc1Cl
TGI (UO-31 renal): 56.9 µM | TGI (HOP-92 NSCLC): 30.4 µM | TGI (U251 CNS): 28.5 µM | TGI (HCT-116 colon): 31.5 µM | TGI (RXF 393 renal): 61.8 µM | TGI (UACC-62 melanoma): 29.6 µM | TGI (HOP-62 NSCLC): 50.2 µM | TGI (K-562 leukemia): 51 µM | TGI (SF-268 CNS): 49.5 µM | TGI (TK-10 renal): > 100 µM

O=c1[nH]cnc2c1ncn2[C@@H]1C[C@@H]1CO
TGI (UO-31 renal): > 100 µM | TGI (HOP-92 NSCLC): > 100 µM | TGI (U251 CNS): > 100 µM | TGI (HCT-116 colon): > 100 µM | TGI (RXF 393 renal): > 100 µM | TGI (UACC-62 melanoma): > 100 µM | TGI (HOP-62 NSCLC): > 100 µM | TGI (K-562 leukemia): > 100 µM | TGI (SF-268 CNS): > 100 µM | TGI (TK-10 renal): > 100 µM

CC(=O)OCC1OC(n2cc(I)c(=O)[nH]c2=O)C(OC(C)=O)C(OC(C)=O)C1OC(C)=O (stereo not given)
TGI (UO-31 renal): > 100 µM | TGI (HOP-92 NSCLC): > 100 µM | TGI (U251 CNS): > 100 µM | TGI (HCT-116 colon): > 100 µM | TGI (RXF 393 renal): > 100 µM | TGI (UACC-62 melanoma): > 100 µM | TGI (HOP-62 NSCLC): > 100 µM | TGI (K-562 leukemia): > 100 µM | TGI (SF-268 CNS): > 100 µM | TGI (TK-10 renal): > 100 µM
